Measurements published in patent US20220177520A1, “PEPTIDES INHIBITING ANDROGEN RECEPTOR ACTIVITY, AND COSMETICS COMPOSITION USING SAME” (SUPADELIXIR INC., priority 2019, published 2022).

How the values were obtained:
androgen receptor = assay: PSA expression in DHT-treated prostate cancer cells (Western blot); type: cell-based; conditions: LNCaP cells, DHT 20 nM plus AR Pep1 1, 10, 100 μM, 24 hours, versus DHT only; FIG. 1
Description: 1. Prostate cancer cells (LNCaP) were prepared at a density of 5×10^6 cells per well, treated with DHT at a concentration of 20 nM and with AR Pep1 at a concentration of 1, 10, 100 μM respectively, then cultured in an incubator at 37° C. in the presence of 5% CO2 for 24 hours. As a control group, one with no treatment at all and one treated only with DHT were used. The cancer cells were washed with PBS three times, and lysed with 1% NP40 lysis buffer (1% Nonidet P40, 0.1 M NaCl, 0.05 M tris (pH 8.0), 5 mM EDTA) containing […] PMSP (phenylmethylsulfonyl fluoride), 1 μg/ml pepstatin A, 10 μg/ml leupeptin, 1 μg/ml aprotinin and 1 mM Na3VO4.
2. The cell lysate was quantified using Bradford assay to prepare a protein sample for electrophoresis.
Immunoprecipitates were subjected to 12.5% polyacrylamide gel electrophoresis, then the unfolded protein was transferred onto a nitrocellulose membrane, treated with a blocking solution (Tris-buffered saline (TBS) containing 0.05% Tween 20 and 3% bovine serum albumin) for about one hour at room temperature. Then, the membrane was suspended in TBS buffer containing Anti-PSA polyclonal antibody (Santa cruz, CA, USA) for two hours and washed with TBS buffer containing 0.05% Tween 20. […]

AR and POL II = molecular target: T1, AR and POL II (Homo sapiens, UniProt P10275); assay: Physical binding of AR and POL II in DHT-treated human keratinocytes (in situ PLA); type: cell-based; conditions: HaCaT cells, DHT 20 nM plus AR Pep1 20 nM, 1, 10, 100 μM, 24 hours, versus DHT only; FIG. 2
T1 construct: Human keratinocytes (HaCaT) were prepared at a density of 4.5×10^4 cells per well, treated with DHT; endogenous in cells; host or cells: HaCaT human keratinocytes
T1 sequence (P10275 1-920): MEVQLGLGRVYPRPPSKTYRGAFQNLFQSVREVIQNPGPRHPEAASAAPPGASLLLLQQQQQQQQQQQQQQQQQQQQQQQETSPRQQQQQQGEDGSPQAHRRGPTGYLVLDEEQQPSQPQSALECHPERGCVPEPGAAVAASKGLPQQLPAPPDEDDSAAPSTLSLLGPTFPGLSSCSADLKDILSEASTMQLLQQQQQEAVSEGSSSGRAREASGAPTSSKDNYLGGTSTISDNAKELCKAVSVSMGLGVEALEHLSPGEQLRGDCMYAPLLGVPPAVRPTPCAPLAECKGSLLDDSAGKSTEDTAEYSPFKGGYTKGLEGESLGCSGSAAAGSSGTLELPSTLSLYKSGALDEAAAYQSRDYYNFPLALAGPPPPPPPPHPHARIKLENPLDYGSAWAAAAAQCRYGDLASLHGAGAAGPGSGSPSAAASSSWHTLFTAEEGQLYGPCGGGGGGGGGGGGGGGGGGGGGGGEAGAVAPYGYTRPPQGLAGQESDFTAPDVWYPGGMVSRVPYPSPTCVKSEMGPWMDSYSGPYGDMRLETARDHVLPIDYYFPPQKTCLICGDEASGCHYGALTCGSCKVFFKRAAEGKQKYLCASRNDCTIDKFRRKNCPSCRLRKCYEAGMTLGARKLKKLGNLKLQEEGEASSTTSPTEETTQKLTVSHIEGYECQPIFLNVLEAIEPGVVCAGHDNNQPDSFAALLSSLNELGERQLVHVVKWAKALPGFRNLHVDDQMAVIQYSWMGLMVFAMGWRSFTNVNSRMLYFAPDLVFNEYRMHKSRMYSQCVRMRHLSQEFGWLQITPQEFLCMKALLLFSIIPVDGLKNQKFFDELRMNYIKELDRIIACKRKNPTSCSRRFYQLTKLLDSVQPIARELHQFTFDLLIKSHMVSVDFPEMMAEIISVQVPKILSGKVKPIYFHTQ
Description: 1. Human keratinocytes (HaCaT) were prepared at a density of 4.5×10^4 cells per well, treated with DHT at a concentration of 20 nM and with AR Pep1 at a concentration of 20 nM, 1, 10, 100 μM respectively, then cultured in an incubator at 37° C. in the presence of 5% CO2 for 24 hours. As a control, one with no treatment at all and one treated only with DHT were used. The cells in each well were washed with PBS, fixed in 2% formaldehyde for five minutes, and treated with 0.1% TritonX-100 for five minutes to enhance antibody permeability into cells. Then, Anti-AR polyclonal antibody (Santa cruz, USA) and Anti-POL II monoclonal antibody (Santa cruz, USA) were added, PLA probe was applied using In situ PLA kit (Sigma-Aldrich), and steps of hybridization, ligation, amplification, and mounting were performed.
2. Luminescence signals (PLA signals) detected from each cell were measured with a confocal laser microscope (Olympus fluoview FW1000; Olympus, Japan), physical interaction between the AR and POL II antibodies was quantified.

Asp-Lys-Phe (DKF; Peptide 1) [AR Pep1]
expression of prostate-specific antigen (PSA) (androgen receptor): expression of the PSA was reduced | physical interaction between the AR and POL II (PLA signals) (AR and POL II): the increase in that interaction was reduced
